The assay relates to SW480. Briefly: drug sensitivity score (DSS, integrated dose-response area); higher = more sensitive (stronger viability reduction); extreme values may be limits of the assay. In outline:
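SW480 cells stably carrying doxycycline-inducible control or SND1-targeting shRNA were treated with 0.1 µg/mL doxycycline for 7 days. Cells were then seeded at 1000 per well into 384-well plates containing 525 commercially available small-molecule inhibitors at five concentrations, and viability was measured with CellTiter-Glo after 72 h. The drug sensitivity score integrates the area under a fitted non-linear dose–response model.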

Setting [1] is: shRNA: SND1 shRNA1 (SND1 silenced).
The mark [2] stands for this setting: shRNA: SND1 shRNA2 (SND1 silenced).
The mark [3] stands for this setting: shRNA: control shRNA (non-targeting).

Turning to `C[C@]12CC[C@@H]3c4ccc(O)cc4C[C@@H](CCCCCCCCC[S+]([O-])CCCC(F)(F)C(F)(F)F)[C@H]3[C@@H]1CC[C@@H]2O` (some centres undefined) [Fulvestrant], the drug sensitivity score is 0 DSS under setting [1], 0 DSS under setting [2] and 1.3 DSS under setting [3].

For the compound `CC(=O)c1cnc2ccc(-c3cc(Cl)c(O)c(Cl)c3)nc2c1N[C@H]1CC[C@H](CN(C)C)CC1` [OTSSP167], the drug sensitivity score is 9.8 DSS under setting [1], 8.7 DSS under setting [2] and 10.6 DSS under setting [3].

With `O=C(Nc1cccc(C(F)(F)F)c1)Nc1cc(S(=O)(=O)NC2CC2)ccc1-c1ccsc1` [AGI-6780], the drug sensitivity score is, setting by setting: under setting [1], 0.2 DSS; under setting [3], 0.5 DSS.

With `NC(=O)N1CCC(CC(=O)N2CCC([C@H]3c4ncc(Br)cc4CCc4cc(Cl)cc(Br)c43)CC2)CC1` [Lonafarnib], the drug sensitivity score stood at 6.9 DSS under setting [1], 8.8 DSS under setting [2] and 4.9 DSS under setting [3].

Consider `COC(=O)c1ccc2c(c1)NC(=O)/C2=C(\Nc1ccc(N(C)C(=O)CN2CCN(C)CC2)cc1)c1ccccc1` [Nintedanib], for which the drug sensitivity score by setting is: under setting [1], 8.4 DSS; under setting [2], 6.8 DSS; under setting [3], 0 DSS.

As to `COc1ccc2c(OCc3nnc4ccc(-c5ccccc5)nn34)ccnc2c1` [AMG-208], the drug sensitivity score is, setting by setting: under setting [1], 0 DSS; under setting [2], 2 DSS; under setting [3], 0.5 DSS.

`CC(C)N(C[C@H]1O[C@@H](n2cnc3c(N)ncnc32)[C@H](O)[C@@H]1O)[C@H]1C[C@@H](CCc2nc3cc(C(C)(C)C)ccc3[nH]2)C1` [Pinometostat]: the drug sensitivity score by setting is: under setting [1], 0 DSS; under setting [2], 2.6 DSS; under setting [3], 0 DSS.

In turn, `CC(C)(C)Cn1c(N)nc2ccc(-c3[nH]c(C(C)(C)C)nc3-c3ccc(F)cc3)nc21` [Ralimetinib] returned a drug sensitivity score under setting [1] of 1.7 DSS, a drug sensitivity score under setting [2] of 0 DSS and a drug sensitivity score under setting [3] of 0.2 DSS.

Turning to `C[C@]12CC[C@@H]3c4ccc(OC(=O)N(CCCl)CCCl)cc4CC[C@H]3[C@@H]1CC[C@@H]2O` [Estramustine], the drug sensitivity score stood at 0 DSS under setting [1] and 0 DSS under setting [3].

For the compound `C[C@@H]1C[C@H]2[C@@H]3CCC4=CC(=O)C=C[C@]4(C)[C@@]3(F)[C@@H](O)C[C@]2(C)[C@@]1(O)C(=O)CO` [Dexamethasone], the drug sensitivity score stood at 0 DSS under setting [1], 1.8 DSS under setting [2] and 1.3 DSS under setting [3].

In the case of `CCn1c(-c2nonc2N)nc2cnc(Oc3cccc(NC(=O)c4ccc(OCCN5CCOCC5)cc4)c3)cc21`, the drug sensitivity score turned out to be 4.8 DSS under setting [1], 5.2 DSS under setting [2] and 5.5 DSS under setting [3].

On to `Cc1cn(-c2cc(NC(=O)c3ccc(C)c(Nc4nccc(-c5cccnc5)n4)c3)cc(C(F)(F)F)c2)cn1` [Nilotinib], for which the drug sensitivity score runs as follows: under setting [1], 2.6 DSS; under setting [2], 3.8 DSS; under setting [3], 1.6 DSS.

On to `CN(C)C/C=C/C(=O)Nc1cc2c(Nc3ccc(F)c(Cl)c3)ncnc2cc1O[C@H]1CCOC1` [Afatinib], for which the drug sensitivity score reads like this: under setting [1], 2.1 DSS; under setting [2], 1.8 DSS; under setting [3], 1.2 DSS.

`N#CC1(c2ccc(NC(=O)c3cccnc3NCc3ccncc3)cc2)CCCC1` [Apatinib]: the drug sensitivity score came out at 0 DSS under setting [1], 0 DSS under setting [2] and 0 DSS under setting [3].

Turning to `CCCc1cc(C)[nH]c(=O)c1CNC(=O)c1cc(-c2ccnc(N3CCN(C)CC3)c2)cc2c1cnn2C(C)C` [GSK343], the drug sensitivity score runs as follows: under setting [1], 0 DSS; under setting [2], 0 DSS; under setting [3], 4.5 DSS.

Consider `CN1CCC(COc2cnc(-c3cccc(Cn4nc(-c5cccc(C#N)c5)ccc4=O)c3)nc2)CC1`, for which the drug sensitivity score was 0 DSS under setting [1], 0 DSS under setting [2] and 0 DSS under setting [3].

With `CNC(=O)c1ccc(N2C(=S)N(c3ccc(C#N)c(C(F)(F)F)c3)C(=O)C23CCC3)cc1F` [RD162], the drug sensitivity score under setting [1] came out at 0.3 DSS, the drug sensitivity score under setting [2] is 2.7 DSS and the drug sensitivity score under setting [3] was found to be 0.8 DSS.

Take `COc1cc(N2CCC(N3CCN(C)CC3)CC2)ccc1Nc1ncnc(Nc2ccccc2S(=O)(=O)C(C)C)n1` [ASP3026]: the drug sensitivity score runs as follows: under setting [1], 4.6 DSS; under setting [2], 5 DSS; under setting [3], 8 DSS.

Turning to `CS(=O)(=O)c1ccc(-c2cnc(N)c(C(=O)Nc3ccccc3)n2)cc1` [VE-821], the drug sensitivity score reads like this: under setting [1], 0 DSS; under setting [3], 0.8 DSS.

For `Cn1c(CCCC(=O)O)nc2cc(N(CCCl)CCCl)ccc21` [Bendamustine], the drug sensitivity score runs as follows: under setting [1], 1.7 DSS; under setting [2], 0.5 DSS; under setting [3], 3.5 DSS.

As for `CS(=O)(=O)OCCCCOS(C)(=O)=O` [Busulfan], the drug sensitivity score reads like this: under setting [1], 0 DSS; under setting [2], 1.4 DSS; under setting [3], 1.5 DSS.

Take `COc1cc2c(Nc3ccc(Cl)c(Cl)c3F)ncnc2cc1OC[C@@H]1C[C@@H]2CN(C)C[C@@H]2C1` [XL-647]: the drug sensitivity score runs as follows: under setting [1], 2.1 DSS; under setting [2], 3.1 DSS; under setting [3], 2.4 DSS.

As to `Nc1ncn([C@H]2C[C@H](O)[C@@H](CO)O2)c(=O)n1` [Decitabine], the drug sensitivity score is, setting by setting: under setting [1], 11 DSS; under setting [2], 8.2 DSS; under setting [3], 5.5 DSS.

For `CC[C@@]1(O)C(=O)OCc2c1cc1n(c2=O)Cc2cc3c(CN(C)C)c(O)ccc3nc2-1` [Topotecan], the drug sensitivity score under setting [1] was 11.3 DSS, the drug sensitivity score under setting [2] came out at 8.8 DSS and the drug sensitivity score under setting [3] came to 9.7 DSS.

As to `COC(=O)N[C@@H](C)CNc1nccc(-c2cn(C(C)C)nc2-c2cc(Cl)cc(NS(C)(=O)=O)c2F)n1` [Encorafenib], the drug sensitivity score runs as follows: under setting [1], 0 DSS; under setting [3], 1.6 DSS.

On to `Cn1cc(C[C@@H](N)C(=O)O)c2ccccc21` [1-methyl-D-tryptophan], for which the drug sensitivity score reads like this: under setting [1], 0 DSS; under setting [3], 0 DSS.

Consider `O=C(/C=C\n1cnc(-c2cc(C(F)(F)F)cc(C(F)(F)F)c2)n1)NNc1ccccn1` [Verdinexor], for which the drug sensitivity score worked out at 8 DSS under setting [1], 4.5 DSS under setting [2] and 8.6 DSS under setting [3].

Regarding `CCNC(=O)Nc1ccc(-c2nc3c(c(N4CCOC[C@@H]4C)n2)CCN(C2COC2)C3)cc1` [RG-7603], the drug sensitivity score is, setting by setting: under setting [1], 0.7 DSS; under setting [2], 1.3 DSS; under setting [3], 0.7 DSS.

On to `COc1cc2c(cc1O)CC[C@@H]1[C@@H]2CC[C@]2(C)[C@@H](O)CC[C@@H]12` [2-methoxyestradiol], for which the drug sensitivity score by setting is: under setting [1], 5.5 DSS; under setting [2], 6.6 DSS; under setting [3], 6.1 DSS.

In the case of `COc1cc2c(cc1-c1c(C)noc1C)ncc1[nH]c(=O)n([C@H](C)c3ccccn3)c12` [I-BET151], the drug sensitivity score is 1.4 DSS under setting [1], 0.5 DSS under setting [2] and 2.4 DSS under setting [3].

The compound `Cc1sc2c(c1C)C(c1ccc(Cl)cc1)=N[C@@H](CC(=O)Nc1ccc(O)cc1)c1nnc(C)n1-2` [OTX015] displayed a drug sensitivity score under setting [1] of 1.9 DSS, a drug sensitivity score under setting [2] of 0.8 DSS and a drug sensitivity score under setting [3] of 0.7 DSS.

`NC(=O)c1cccc(-c2cccc(OC(=O)NC3CCCCC3)c2)c1` [URB597] showed a drug sensitivity score under setting [1] of 0.2 DSS and a drug sensitivity score under setting [3] of 2.6 DSS.

For `OC[C@H]1O[C@@H](n2cnc3c2N=CNC[C@H]3O)C[C@@H]1O` [Pentostatin], the drug sensitivity score is, setting by setting: under setting [1], 1.6 DSS; under setting [2], 3.5 DSS; under setting [3], 2.9 DSS.

As to `CC(C)Nc1cc(-c2c[nH]c(C(=O)N[C@H](CO)c3cccc(Cl)c3)c2)c(Cl)cn1` [Ulixertinib], the drug sensitivity score is, setting by setting: under setting [1], 10.2 DSS; under setting [2], 2.3 DSS; under setting [3], 7.6 DSS.

Take `C=CC(=O)N1CCC(Oc2cc3c(Nc4ccc(Cl)c(Cl)c4F)ncnc3cc2OC)CC1` [Poziotinib]: the drug sensitivity score is, setting by setting: under setting [1], 0.6 DSS; under setting [2], 4.1 DSS; under setting [3], 0.2 DSS.

`CNC(=O)c1ccc(-c2cnc3ncc(Cc4ccc5ncccc5c4)n3n2)cc1F` [NVP-INC280]: the drug sensitivity score under setting [1] was determined as 0 DSS, the drug sensitivity score under setting [2] came out at 5.7 DSS and the drug sensitivity score under setting [3] was determined as 5.8 DSS.

Consider `O=c1cc(N2CCOCC2)oc2c(-c3ccccc3)cccc12`, for which the drug sensitivity score reads like this: under setting [1], 8.9 DSS; under setting [2], 9.9 DSS; under setting [3], 8.3 DSS.

Turning to `NCCNc1ccc(NCCN)c2c1C(=O)c1ccncc1C2=O` [Pixantrone], the drug sensitivity score runs as follows: under setting [1], 0 DSS; under setting [2], 0 DSS; under setting [3], 0 DSS.

`Cn1cc(-c2ccc3nnc(Sc4ccc5ncccc5c4)n3n2)cn1` [SGX-523] had a drug sensitivity score under setting [1] of 0 DSS and a drug sensitivity score under setting [3] of 0 DSS.

With `COc1ccc(S(=O)(=O)Nc2cccnc2Nc2ccc(O)cc2)cc1` [ABT-751], the drug sensitivity score under setting [1] was 9 DSS, the drug sensitivity score under setting [2] was 9.1 DSS and the drug sensitivity score under setting [3] turned out to be 9.5 DSS.

Consider `O=C(c1ccc(OCCN2CCCCC2)cc1)c1c(-c2ccc(O)cc2)sc2cc(O)ccc12` [Raloxifene], for which the drug sensitivity score reads like this: under setting [1], 6.6 DSS; under setting [2], 4.1 DSS; under setting [3], 7.2 DSS.

As to `CC(O)(CS(=O)(=O)c1ccc(F)cc1)C(=O)Nc1ccc(C#N)c(C(F)(F)F)c1` (centres undefined) [Bicalutamide], the drug sensitivity score by setting is: under setting [1], 0.4 DSS; under setting [2], 0.3 DSS; under setting [3], 1.4 DSS.

Values taken from the supplement of paper PMC9265050, “Inhibition of RNA Binding in SND1 Increases the Levels of miR-1-3p and Sensitizes Cancer Cells to Navitoclax” (Cancers, 2022).
